Measured values as given in ChEMBL document CHEMBL1201862, “PubChem BioAssay data set” (2004).
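The compound was tested at five concentrations on cells cultured in 96-well plates, with a 48-hour exposure period. GI50 is the concentration that inhibits growth by half.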 Activity calls are given as the source filed them. Rule as the data show it: active = GI50 up to about 1.1 µM and inactive = higher.

Assays:
Experiment in all cases: NCI anticancer screen, dose series, 48 h
UACC-62 = test system: UACC-62
HCT-15 = test system: HCT-15
A549 = test system: A549
U-251 = test system: U-251
OVCAR-3 = test system: OVCAR-3
HOP-92 = test system: HOP-92
Malme-3M = test system: Malme-3M
IGROV-1 = test system: IGROV-1
SK-OV-3 = test system: SK-OV-3
OVCAR-4 = test system: OVCAR-4
OVCAR-8 = test system: OVCAR-8
NCI-H23 = test system: NCI-H23
SW-620 = test system: SW-620
SK-MEL-28 = test system: SK-MEL-28
HCT-116 = test system: HCT-116
SK-MEL-5 = test system: SK-MEL-5
SF-539 = test system: SF-539
OVCAR-5 = test system: OVCAR-5
MCF7 = test system: MCF7
ACHN = test system: ACHN
SF-268 = test system: SF-268
BT-549 = test system: BT-549
EKVX = test system: EKVX
T47D = test system: T47D
SNB-19 = test system: SNB-19
SNB-75 = test system: SNB-75
NCI-H226 = test system: NCI-H226
M14 = test system: M14
RXF 393 = test system: RXF 393
CCRF-CEM = test system: CCRF-CEM
HCC 2998 = test system: HCC 2998
SF-295 = test system: SF-295
HOP-62 = test system: HOP-62
KM12 = test system: KM12
SK-MEL-2 = test system: SK-MEL-2
TK-10 = test system: TK-10
HL-60 = test system: HL-60
NCI-H460 = test system: NCI-H460
MOLT-4 = test system: MOLT-4
K562 = test system: K562
COLO 205 = test system: COLO 205
PC-3 = test system: PC-3
HT-29 = test system: HT-29
786-0 = test system: 786-0
SN12C = test system: SN12C
MDA-MB-231 = test system: MDA-MB-231
MDA-MB-435 = test system: MDA-MB-435
LOX IMVI = test system: LOX IMVI
UO-31 = test system: UO-31
Hs-578T = test system: Hs-578T
RPMI-8226 = test system: RPMI-8226
UACC-257 = test system: UACC-257
NCI-H522 = test system: NCI-H522
DU-145 = test system: DU-145
CAKI-1 = test system: CAKI-1
MDA-N = test system: MDA-N
NCI/ADR-RES = test system: NCI/ADR-RES
SR = test system: SR

## C[C@@H]1S[C@H](c2ccccc2F)N2Cc3ccccc3N=C12
UACC-62
  GI50: 19.1 µM (inactive)
HCT-15
  GI50: 28.5 µM
A549
  GI50: 39.2 µM (inactive)
U-251
  GI50: 27.9 µM (inactive)
OVCAR-3
  GI50: 34.4 µM (inactive)
HOP-92
  GI50: 17.3 µM (inactive)
Malme-3M
  GI50: 19.9 µM (inactive)
IGROV-1
  GI50: 33.5 µM (inactive)
SK-OV-3
  GI50: 25.1 µM (inactive)
OVCAR-4
  GI50: 21 µM (inactive)
OVCAR-8
  GI50: 28.4 µM (inactive)
NCI-H23
  GI50: 31.3 µM (inactive)
SW-620
  GI50: 36.4 µM (inactive)
SK-MEL-28
  GI50: 40.7 µM (inactive)
HCT-116
  GI50: 17.1 µM (inactive)
SK-MEL-5
  GI50: 17 µM (inactive)
SF-539
  GI50: 37.9 µM (inactive)
OVCAR-5
  GI50: 28.2 µM (inactive)
MCF7
  GI50: 31.6 µM (inactive)
ACHN
  GI50: 31.4 µM (inactive)
SF-268
  GI50: 28.6 µM (inactive)
BT-549
  GI50: 31.3 µM (inactive)
EKVX
  GI50: 24.8 µM (inactive)
T47D
  GI50: 24.1 µM (inactive)
SNB-19
  GI50: 30.6 µM (inactive)
SNB-75
  GI50: 25.6 µM (inactive)
NCI-H226
  GI50: 30.1 µM (inactive)
M14
  GI50: 20.9 µM (inactive)
RXF 393
  GI50: 27.4 µM (inactive)
CCRF-CEM
  GI50: 30.6 µM (inactive)
HCC 2998
  GI50: 20 µM (inactive)
SF-295
  GI50: 26.2 µM (inactive)
HOP-62
  GI50: 29.8 µM (inactive)
KM12
  GI50: 27.3 µM (inactive)
SK-MEL-2
  GI50: 16.8 µM (inactive)
TK-10
  GI50: 36.7 µM (inactive)
HL-60
  GI50: 19.3 µM (inactive)
NCI-H460
  GI50: 30.9 µM (inactive)
MOLT-4
  GI50: 18.2 µM (inactive)
K562
  GI50: 22.9 µM (inactive)
COLO 205
  GI50: 30.8 µM (inactive)
PC-3
  GI50: 22.9 µM (inactive)
HT-29
  GI50: 19.5 µM (inactive)
786-0
  GI50: 23.4 µM (inactive)
SN12C
  GI50: 18.7 µM (inactive)
MDA-MB-231
  GI50: 35 µM (inactive)
MDA-MB-435
  GI50: 23.5 µM (inactive)
LOX IMVI
  GI50: 18.5 µM (inactive)
UO-31
  GI50: 17.1 µM (inactive)
Hs-578T
  GI50: 27.7 µM (inactive)
RPMI-8226
  GI50: 20.6 µM (inactive)
UACC-257
  GI50: 28.6 µM (inactive)
NCI-H522
  GI50: 19.2 µM (inactive)
DU-145
  GI50: 33.7 µM (inactive)
CAKI-1
  GI50: 20.9 µM (inactive)
MDA-N
  GI50: 20.7 µM (inactive)
NCI/ADR-RES
  GI50: 24.7 µM (inactive)
SR
  GI50: 15.9 µM (inactive)

## c1ccc(-c2cc(-c3ccccc3)nc(-c3ccncc3)c2)cc1
UACC-62
  GI50: > 100 µM (inactive)
HCT-15
  GI50: > 100 µM
A549
  GI50: > 100 µM (inactive)
U-251
  GI50: 37.6 µM (inactive)
OVCAR-3
  GI50: > 100 µM (inactive)
Malme-3M
  GI50: > 100 µM (inactive)
IGROV-1
  GI50: 25.9 µM (inactive)
SK-OV-3
  GI50: > 100 µM (inactive)
OVCAR-4
  GI50: 16.4 µM (inactive)
OVCAR-8
  GI50: > 100 µM (inactive)
NCI-H23
  GI50: 91.4 µM (inactive)
SW-620
  GI50: > 100 µM (inactive)
SK-MEL-28
  GI50: > 100 µM (inactive)
HCT-116
  GI50: 48.8 µM (inactive)
SK-MEL-5
  GI50: 57.1 µM (inactive)
OVCAR-5
  GI50: > 100 µM (inactive)
MCF7
  GI50: > 100 µM (inactive)
ACHN
  GI50: 70.8 µM (inactive)
SF-268
  GI50: > 100 µM (inactive)
BT-549
  GI50: > 100 µM (inactive)
EKVX
  GI50: > 100 µM (inactive)
T47D
  GI50: > 100 µM (inactive)
SNB-19
  GI50: 53.8 µM (inactive)
NCI-H226
  GI50: 58.5 µM (inactive)
M14
  GI50: 42.4 µM (inactive)
RXF 393
  GI50: 44.6 µM (inactive)
CCRF-CEM
  GI50: > 100 µM (inactive)
HCC 2998
  GI50: > 100 µM (inactive)
SF-295
  GI50: 57.1 µM (inactive)
HOP-62
  GI50: 16.1 µM (inactive)
KM12
  GI50: 96.4 µM (inactive)
SK-MEL-2
  GI50: > 100 µM (inactive)
TK-10
  GI50: 40.4 µM (inactive)
HL-60
  GI50: > 100 µM (inactive)
MOLT-4
  GI50: > 100 µM (inactive)
K562
  GI50: > 100 µM (inactive)
COLO 205
  GI50: > 100 µM (inactive)
PC-3
  GI50: > 100 µM (inactive)
786-0
  GI50: 18 µM (inactive)
SN12C
  GI50: > 100 µM (inactive)
MDA-MB-231
  GI50: 97.5 µM (inactive)
MDA-MB-435
  GI50: > 100 µM (inactive)
LOX IMVI
  GI50: > 100 µM (inactive)
UO-31
  GI50: > 100 µM (inactive)
Hs-578T
  GI50: > 100 µM (inactive)
RPMI-8226
  GI50: > 100 µM (inactive)
UACC-257
  GI50: 99.8 µM (inactive)
NCI-H522
  GI50: > 100 µM (inactive)
DU-145
  GI50: > 100 µM (inactive)
CAKI-1
  GI50: > 100 µM (inactive)
MDA-N
  GI50: > 100 µM (inactive)
NCI/ADR-RES
  GI50: > 100 µM (inactive)
SR
  GI50: > 100 µM (inactive)
